In data set [1] the target is rat mGlu7 (Rattus norvegicus, UniProt P35400). The data set is classed as cell-based.
The nature of data set [2]: Predicted hepatic clearance. The settings on record: for rat CLhep: Table 1, predicted hepatic clearance; for Rat CLhep: Table 2, predicted hepatic clearance. The data set is classed as in vitro ADME.
A short description of data set [3]: Predicted hepatic clearance. The class given is in vitro ADME.
A short description of data set [4]: Rat plasma:brain level. The class given is in vivo. The settings on record: rat PBL IV cassette.
Data set [5] is described as follows: Discrete iv and po pharmacokinetics in rat. The class given is in vivo. The settings on record: plasma, 0.2 mg/kg.
In data set [6] the test system is mGlu1–6,8. Nature of the data set: Selectivity versus the other seven mGlu receptors. The class given is cell-based.
The target of data set [7] is 5-HT2B receptor (Homo sapiens, UniProt P41595). Nature of the data set: Eurofins lead profiling panel of 68 GPCRs, ion channels, and transporters. The data set is classed as binding. The settings on record: at 10 μM; only target of 68 above 50%.
Chain of 5-HT2B receptor (P41595 whole entry): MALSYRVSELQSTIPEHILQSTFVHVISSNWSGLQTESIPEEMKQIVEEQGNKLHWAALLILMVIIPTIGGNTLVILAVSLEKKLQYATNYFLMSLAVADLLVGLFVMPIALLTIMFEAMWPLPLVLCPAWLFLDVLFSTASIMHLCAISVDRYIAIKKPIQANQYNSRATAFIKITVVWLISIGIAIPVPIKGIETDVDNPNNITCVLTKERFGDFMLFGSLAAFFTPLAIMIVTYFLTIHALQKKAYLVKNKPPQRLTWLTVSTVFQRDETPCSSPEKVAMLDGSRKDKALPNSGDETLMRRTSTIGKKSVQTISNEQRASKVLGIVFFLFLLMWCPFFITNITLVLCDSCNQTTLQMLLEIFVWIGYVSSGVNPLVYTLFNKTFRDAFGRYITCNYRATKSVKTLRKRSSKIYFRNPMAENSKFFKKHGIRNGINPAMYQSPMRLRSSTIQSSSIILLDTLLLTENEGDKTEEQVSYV
Data set [8] can be described thus: 30 mg/kg. The class given is in vivo, rat.
In data set [9] the test system is mice. The data set can be described thus: Elevated zero maze. The class given is in vivo, mouse.
In data set [10] the test system is mice. The data set can be described thus: Light/dark box assay. The data set is classed as in vivo, mouse. The settings on record: vs vehicle.
Data set [11] concerns mice. Nature of the data set: Mouse marble-burying assay. The settings on record: vs vehicle. The class given is in vivo.
Data set [12] concerns hippocampus (native tissues). The settings on record: cited from earlier work.

Each structure is given as a SMILES string. “Also recorded” adds a separate entry of the source.

Chain of rat mGlu7 (P35400 35-915): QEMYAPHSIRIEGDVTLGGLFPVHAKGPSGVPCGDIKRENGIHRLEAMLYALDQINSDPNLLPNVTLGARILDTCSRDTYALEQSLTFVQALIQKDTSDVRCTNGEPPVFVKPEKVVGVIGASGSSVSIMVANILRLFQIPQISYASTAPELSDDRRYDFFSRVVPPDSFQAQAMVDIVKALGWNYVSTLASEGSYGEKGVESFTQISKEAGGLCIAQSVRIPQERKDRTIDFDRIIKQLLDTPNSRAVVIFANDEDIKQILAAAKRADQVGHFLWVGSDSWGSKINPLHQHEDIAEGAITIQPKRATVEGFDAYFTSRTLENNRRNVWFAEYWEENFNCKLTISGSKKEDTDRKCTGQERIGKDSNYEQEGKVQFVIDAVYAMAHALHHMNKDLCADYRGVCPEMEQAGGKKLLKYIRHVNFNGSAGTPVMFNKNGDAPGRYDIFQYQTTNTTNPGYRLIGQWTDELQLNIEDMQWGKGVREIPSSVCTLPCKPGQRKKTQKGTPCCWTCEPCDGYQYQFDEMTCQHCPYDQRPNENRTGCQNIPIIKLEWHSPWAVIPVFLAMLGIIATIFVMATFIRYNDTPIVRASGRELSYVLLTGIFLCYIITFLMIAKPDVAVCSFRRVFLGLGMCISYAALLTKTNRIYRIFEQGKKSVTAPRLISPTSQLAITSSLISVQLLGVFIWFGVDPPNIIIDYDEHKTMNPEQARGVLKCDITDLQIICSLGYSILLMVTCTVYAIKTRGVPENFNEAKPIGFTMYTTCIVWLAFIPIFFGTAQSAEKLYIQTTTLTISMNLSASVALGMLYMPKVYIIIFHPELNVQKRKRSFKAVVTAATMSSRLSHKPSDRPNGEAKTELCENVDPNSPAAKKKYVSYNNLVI

Take `COc1ccc(CNc2cc(OC(F)(F)F)ccc2-n2cncn2)cc1OC` [6a]: the “% L-AP4 min” value in [1] was found to be 17 ± 3%.

Take `COc1ccc(CCCNc2cc(OC(F)(F)F)ccc2-n2cncn2)cc1OC` [6b]: the “rat CLhep” value in data set [2] was 68.1 mL/min/kg.

Consider `COc1cc(F)c(CCCNc2cc(OC(F)(F)F)ccc2-n2cncn2)cc1OC` [6c], for which the “rat CLhep” value in [2] was 66.4 mL/min/kg.

On to `COc1cc(F)c(OCCNc2cc(OC(F)(F)F)ccc2-n2cncn2)cc1OC` [6d], for which the “rat CLhep” value in data set [2] is 66.4 mL/min/kg.

Turning to `COc1cc(C(=O)Nc2cc(OC(F)(F)F)ccc2-n2cncn2)ccc1OCC(F)(F)F` [7a], the “mGlu7 NAM activity (in words)” value in data set [1] is “inactive”.

As to `COc1cc(C(=O)Nc2cc(OC(F)(F)F)ccc2-n2cncn2)ccc1OCC(C)(C)C` [7b], in data set [1], the “mGlu7 NAM activity (in words)” value was “inactive”.

`COc1cc(C(=O)Nc2cc(OC(F)(F)F)ccc2-n2cncn2)ccc1OCC(C)C` [7c]: the “mGlu7 NAM activity (in words)” value in data set [1] is given as “restored mGlu7 NAM activity”. The “Rat CLhep” value in [2] is given as 38.4 mL/min/kg.

`COc1cc(C(=O)Nc2cc(OC(F)(F)F)ccc2-n2cncn2)ccc1OCC1CC1` [7d, N-(2-(1H-1,2,4-Triazol-1-yl)-5-(trifluoromethoxy)phenyl)-4-(cyclopropylmethoxy)-3-methoxybenzamide]: in data set [2], the “predicted hepatic clearance, rat CLhep” value was 15.9 mL min^–1 kg^–1 and the “Rat CLhep” value is 15.9 mL/min/kg. Also, the “predicted hepatic clearance in mouse, CLhep” value in [3] is given as 44.0 mL min^–1 kg^–1. Moreover, the “[brain]tot” value in [4] amounted to 375 nM. Further, in [5], the clearance at 24 h was 31.5 mL/min/kg. Also, in data set [6], the “activity versus mGlu1–6,8” value is more than 10 µM. The “compound activity at 5-HT2B receptor” value in data set [7] was “greater than 50%”. Besides, the “predicted unbound levels (CSF concentrations) above the in vitro IC50” value in data set [8] (at modest doses) is recorded as ~ 4 fold. In addition, in data set [8] (rat, 30 mg/kg ip), the “[brain]tot” value stood at 745 nM, the “[plasma]tot” value worked out at 598 nM and the “levels in CSF” value is 1300 nM. In addition, the “time spent in the open arms” value in data set [9] (3 mg/kg ip, vs VEH p < 0.05, 3 mg/kg) is recorded as “increased total time spent in the open arms; also recorded: increases time spent in the open arms”. In addition, the “overall locomotion / distance traveled” value in data set [9] (10 mg/kg ip, 10 mg/kg) is “decrease in overall locomotion; also recorded: decreased distance traveled”. In addition, the “total time spent in the light side of the chamber” value in [10] (3 mg/kg ip) is on record as “increased total time spent in the light side of the chamber”. The “number of marbles buried” value in data set [11] (3 mg/kg, 3 mg/kg) was “decreased the number of marbles buried; also recorded: reduced the number of marbles buried”.

Turning to `COc1ccc(C(=O)Nc2cc(OC(F)(F)F)ccc2-n2cncn2)cc1OC` [compound 5], the “blocking high-frequency-stimulated LTP in the hippocampus” value in [12] is given as “robust efficacy”.

On to `CNCCC(Oc1ccc(C(F)(F)F)cc1)c1ccccc1` (centres unmarked) [fluoxetine, reference compound], for which the “total time spent in the light side of the chamber” value in data set [10] (15 mg/kg ip) is on record as “increased total time spent in the light side of the chamber”. Moreover, in data set [11] (fluoxetine 15 mg/kg), the “number of marbles buried” value is listed as “decreased the number of marbles buried”.

Values taken from publication PMC6501583 (Journal of medicinal chemistry, 2019).
